The values below come from ChEMBL document CHEMBL2151027, “BACE Inhibitors: Potential Treatment of Alzheimer's Disease, Dementia, and Related Neurodegenerative Disorders (B): 3-Amino-4-fluoro-1H-isoindol Derivatives: Patent Highlight” (ACS Med Chem Lett, 2012).

The IC50 is the concentration that inhibits the measured activity by half.

For assay [1], the target named is T1, Beta-secretase 1 (Homo sapiens, UniProt P56817). Description: Inhibition of BACE1 by diluted TR-FRET assay. (Time-resolved FRET reads energy transfer from a long-lived donor to a nearby acceptor.)
T1 sequence (P56817 whole entry): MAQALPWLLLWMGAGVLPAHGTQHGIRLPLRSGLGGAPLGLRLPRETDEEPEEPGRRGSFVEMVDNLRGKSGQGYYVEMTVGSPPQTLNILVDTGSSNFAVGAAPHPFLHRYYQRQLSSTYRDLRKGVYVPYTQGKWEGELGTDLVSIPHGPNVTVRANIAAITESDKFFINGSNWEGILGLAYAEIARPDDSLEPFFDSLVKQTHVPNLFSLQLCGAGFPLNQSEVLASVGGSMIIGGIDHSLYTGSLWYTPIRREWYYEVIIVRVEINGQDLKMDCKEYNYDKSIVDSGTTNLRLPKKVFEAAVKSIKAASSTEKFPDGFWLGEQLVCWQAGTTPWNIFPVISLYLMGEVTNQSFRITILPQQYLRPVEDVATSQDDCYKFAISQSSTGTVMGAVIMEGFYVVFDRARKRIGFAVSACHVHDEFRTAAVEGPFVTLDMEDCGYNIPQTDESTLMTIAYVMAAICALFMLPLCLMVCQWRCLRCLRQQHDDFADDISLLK
In assay [2] the target is T1, Beta-secretase 1. Description: Inhibition of BACE1 by secreted AAPbeta release assay.

As to `CCn1cc([C@]2(c3cccc(-c4cncc(C#N)c4)c3)N=C(N)c3c(F)cccc32)cc(C)c1=O`, the IC50 in assay [1] turned out to be 8 nM; in assay [2], 2 nM.

Turning to `CC#Cc1cncc(-c2cccc([C@@]3(c4cc(C(F)F)c(=O)n(CC)c4)N=C(N)c4c(F)cccc43)c2)c1`, the results for the IC50 in assay [1] and in assay [2] were 6 nM and 4 nM, respectively.

Regarding `CC#Cc1ccnc(-c2cccc([C@@]3(c4cc(C)c(=O)n(CC)c4)N=C(N)c4c(F)cccc43)c2)c1`, the IC50 in assay [2] came out at 2 nM.
